# Laboratory results from patent US6239284A, “Aromatic tetracyclic compounds of the retinoid type method for preparing and use” (priority 1997, dated 2001).
# Entries after “also recorded” stand apart in the source; their conditions may differ. Where two headings read alike, the source gives them in different places.
# What was measured:
# [1] = tested on: ERE; experiment: Anti-estrogenic effect, MELN cellular lineage (MCF-7 with ERE-βGlob-Luc) activated by estradiol; format: cell-based, human
# Description: MCF-7 cells express RARα,γ and RXRα. The transfection of MCF-7 cells by an estrogen-dependent gene (ERE-βGlob-Luc) has permitted the establishment of the MELN cellular lineage, used to determine the anti-oestrogenic activity of the retinoids. These cells contain the gene of the luciferase under the transcriptional control of the promoter of the βGlobine and of the response element ERE isolated from the gene of chicken vitelogenine A2. The experiments are carried out with MELN cells activated by 10^-9 M estradiol. The level of base activity of the MELN cells is obtained with the anti-estrogen 1 μM 4-OH-tamoxifen (hydroxytamoxifen).
# The effect of the products tested on the cells activated by 10^-9 M estradiol is expressed as a percentage, the level of base activity being deducted.
# [2] = tested on: T-47D cells; experiment: Anti-proliferation effect, estrogen-induced growth of T-47D cells; format: cell-based, human
# Description: (§1) So as to test the anti-proliferation effect of the retinoids, growth experiments under oestrogenic conditions were carried out on cells MCF-7 and T-47D. These are the human estrogen-dependent mammary cancer cells which express the receptor to RE estrogens. The effect of the molecules is evaluated after 7 days of culture in oestrogenic conditions (estradiol 10^-9 M) by dosing the cellular DNA. The cells are distributed in 24 well plates at a density of 2×10^4 cells per well. The tests with the different retinoids are carried out in triplicate and the culture medium is changed after 4 days of growth.
# (§2) The effect of the retinoids on the growth of MCF-7 and T-47D cells is evaluated after 7 days of culture in the presence of 10^-9 M estradiol by dosing the cellular DNA.
# [3] = tested on: AP-1; experiment: Anti-AP-1 effect, MTLN cellular lineage (MCF-7 with (TRE)3-tk-Luc) activated by TPA; format: cell-based, human; conditions: for Anti-AP-1 effect, Inhibition (%): 10^-7 M TPA, range of several experiments; for inhibition at 1 µM: Homo sapiens, AP1, read-out: Inhibition of AP-1 route (MTLN)
# Description: The anti-factor AP-1 transrepressor effect of retinoids is determined using the MTLN lineage, coming from MCF-7 cells transfected in a stable fashion by a vector p(TRE)3 -tk-Luc which places the expression of the gene of luciferase under the control of […]. TPA activates the AP-1 complex formed from proteins of the family of nuclear proto-oncogenes (c-Jun and c-Fos). […] The experiments ware made with the MTLN cells activated by 10^-7 M TPA.
# The effect of the compounds on the MTLN cells activated by 10^-7 M TPA is expressed as a percentage. […] The inhibitive properties of the products are calculated after deduction of the base activity of the cells. The percentages reported correspond to a range of inhibitions determined from several experiments.
# [4] = tested on: MCF-7 cells; experiment: Anti-proliferation effect, estrogen-induced growth of MCF-7 cells; format: cell-based, human
# Description: as §1, §2
# [5] = tested on: RARγ; experiment: Transactivation of chimerical receptor RARγ-ERcassette, transient transfection of HeLa cells; format: cell-based; conditions: 100% = TTNPB 10^-8 M
# Source text: (§3) The HeLa cells are co-transfected by a plasmid which codes for a retinoic receptor in which the C domain of bonding to the DNA is substituted by that of the receptor to RE estrogens, and a plasmid which places the expression of the luciferase under the control of an ERE (Element of Response to Estrogens). The expressed chimerical receptors are designated as RARα-ERcassette, RARβ-ERcassette, RARγ-ERcassette and RXRα-ERcassette. The A, B, D, E and F regions of the natural receptor are preserved as well as the transcriptional co-operation between the activation domains AF-1 and AF-2. These transitory transfection experiments follow the method of co-precipitation to calcium phosphate. The HeLa cells are co-transfected by […] of plasmid coding for the chimerical receptor, […] of reporter plasmid and […] of expression vector CMV-β-galactosidase used as an internal control of transfection. 24 hours after the transfection, the cells are incubated for 16 hours with the different effectors.
# (§4) In this type of chimerical receptor, the C domain of bonding to the DNA of RAR is substituted by that of the receptor to the RE estrogens. The protein obtained is close to the natural RAR receptor and preserves the transcriptional properties of the AF-1 and AF-2 domains. It modulates the transcription by means of an ERE. This RAR-ERcassette model allows one to observe a transcriptional response to a more physiological ligand.
# (§5) The study of the selectivity of the compounds was carried out with the RAR-ERcassette chimerical receptors model.
# (§6) On one and the same line in the Table, the cis (Z) compound represents the isomeric structure of the trans (E) compound.
# [6] = tested on: RARE; experiment: HRL+N transactivation (stably transfected HeLa, RARE reporter, endogenic receptors); format: cell-based; conditions: for activation at 1 µM: Table 12
# Source text: (§7) The cellular lineages HRLN and HRL+N allow one to study the activation of an RARE by endogenic receptors using ligands at physiological concentrations. These lineages derive from HeLa cells transfected in a stable fashion by a reporter gene which places the expression of the gene of the luciferase under the control of a nuclear response element RARE (RARE3 -tk-Luc). The HeLa cells express all the known receptors of the retinoic acid (RARα,β,γ and RXRα,β,γ) with a predominance of RARα and RXRα. The response element RARE used for the HRLN cells corresponds to the sequence of the natural gene of the RARβ receptor (GGTTCAnnnnnAGTTCA). The HRL+N cells comprise the sequence GAGTGAnnnnnCGGTGA.
# The HRL+N lineage allows one to visualize a co-activation of the RAR and RXR receptors at the level of the RAR-RXR hetero-dimer.
# [7] = tested on: RARE; experiment: HRLN transactivation (stably transfected HeLa, RARE3-tk-Luc, endogenic receptors); format: cell-based
# Source text: as §7
# [8] = tested on: RARβ; experiment: Transactivation of chimerical receptor RARβ-ERcassette, transient transfection of HeLa cells; format: cell-based; conditions: for RAR-ERcassette RARβ transactivation (%): 100% = TTNPB 10^-8 M
# Source text: as §3, §4, §5, §6
# [9] = tested on: RAR; experiment: RAR-ERcassette model, specificity profile (transient transfection of HeLa cells); format: cell-based
# Source text: as §3, §4, §5
# [10] = tested on: RARα; experiment: Transactivation of chimerical receptor RARα-ERcassette, transient transfection of HeLa cells; format: cell-based; conditions: for RAR-ERcassette RARα transactivation (%): 100% = TTNPB 10^-8 M
# Source text: as §3, §4, §5, §6
# [11] = tested on: RARβ; experiment: Transactivation of chimerical receptor GAL4-RARβ, transient transfection of HeLa cells (luciferase)
# Source text: (§8) Studies of the transactivational specificity of the retinoids have been carried out by transitory transfection of HeLa cells. Two types of chimerical receptors can then be expressed by the cells. […] The C region (domain of bonding to the DNA) and the A and B regions (AF-1 activation domain) are suppressed.
# (§9) These chimerical receptors activated by an agonist specifically stimulate the transcription of the gene of the luciferase present in a co-transfected plasmid ((17M)5-βG-Luc) where 17M is the response element of Gal4.
# [12] = tested on: RARγ; experiment: Transactivation of chimerical receptor GAL4-RARγ, transient transfection of HeLa cells (luciferase)
# Source text: as §8, §9
# [13] = tested on: RAR; experiment: GAL-RAR model, specificity profile (transient transfection of HeLa cells)
# Source text: as §8, §9
# [14] = tested on: RARα; experiment: Transactivation of chimerical receptor GAL4-RARα, transient transfection of HeLa cells (luciferase)
# Source text: as §8, §9
# [15] = Homo sapiens, -6 log M (10^-6 M), 10^-9 M estradiol, read-out: Anti-oestrogenic effect, Inhibition (%)
# [16] = Homo sapiens, read-out: Anti-oestrogenic effect, Inhibition (%)
compound,measurement,setting,value
"CC1(C)CCC(C)(C)c2cc(C(=O)Nc3ccc(C(=O)O)cc3)ccc21 [Am580, 4-[(5,6,7,8-tetrahydro-5,5,8,8-tetramethyl-2-naphthalenyl)carboxamido]benzoic acid]",inhibition at 0.01 µM,"[1]; Homo sapiens, -8 log M, 10^-9 M estradiol, read-out: Anti-oestrogenic effect, Inhibition (%)",36 to 51%
same,inhibition at 1 µM,"[2]; Homo sapiens, T47D, 168 h, at 1 μM, 7 days, estradiol 10^-9 M, read-out: T-47D percentage inhibition of growth",74%
same,"Anti-AP-1 effect, Inhibition (%)",[3]; -7 log M,41-48%
same,"Anti-AP-1 effect, Inhibition (%)",[3]; -8 log M,40-46%
same,inhibition at 1 µM,"[4]; Homo sapiens, MCF7, 168 h, at 1 μM, 7 days, estradiol 10^-9 M, read-out: MCF-7 percentage inhibition of growth",67%
"Cc1cc2c(cc1/C=C1/CCc3cc(-c4nnn[nH]4)ccc31)C(C)(C)CCC2(C)C [CB02981, (Z) 5-[1-[2-(5,6,7,8-tetrahydro-3,5,5,8,8-pentamethyl)naphthalenylmethylene]-2,3-dihydro-1H-indenyl]-1H-tetrazole]",RAR-ERcassette RARγ transactivation (%),[5]; -6 log M (1 μM),0%
same,HRL+N transactivation in words,[6],does not cause transactivation mediated by RAR and RXR
same,activation at 1 µM,"[6]; Homo sapiens, HeLa",0%
same,inhibition at 1 µM,[1]; [15],0%
same,HRLN transactivation in words,[7],inactive
same,activation at 1 µM,"[7]; Homo sapiens, HeLa",0%
same,Effect on growth of T-47D cells in words,[2]; estrogenic conditions,no effect whatsoever
same,Anti-AP-1 effect (MTLN) in words,[3],"in association with a RXR agonist, an additive effect of the inhibiting effects of the two molecules is observed; also recorded: dissociating compound and causes inhibition of the AP-1 ring"
same,inhibition at 1 µM,[3],~20%
same,RAR-ERcassette RARβ transactivation (%),[8]; -6 log M (1 μM),7%
same,RAR-ERcassette profile in words,[9],inactive
same,Effect on growth of MCF-7 cells in words,[4]; estrogenic conditions,no effect whatsoever
same,RAR-ERcassette RARα transactivation (%),[10]; -6 log M (1 μM),4%
"Cc1cc2c(cc1/C=C1/CCc3cc(C(=O)O)ccc31)C(C)(C)CCC2(C)C [CB75403, (Z) 1-[2-(5,6,7,8-tetrahydro-3,5,5,8,8-pentamethyl)naphthalenylmethylene]-2,3-dihydro-1H-indene-5-carboxylic acid]",RAR-ERcassette RARγ transactivation (%),[5]; -6 log M (1 μM),68%
same,RAR-ERcassette RARγ transactivation (%),[5]; -7 log M,40%
same,activation at 1 µM,"[6]; Homo sapiens, HeLa",18%
same,inhibition at 1 µM,[1]; [15],0%
same,inhibition at 1 µM,[3],~30%
same,RARβ transactivation (RAR-ERcassette) in words,[8],same level of transactivation through the intermediary of RARβ at 0.1 μM and at 1 μM and also at 3 μM
same,RAR-ERcassette RARβ transactivation (%),[8]; -6 log M (1 μM),65%
same,RAR-ERcassette RARβ transactivation (%),[8]; -7 log M,68%
same,RAR-ERcassette profile in words,[9],"RARβ,γ specificity; also recorded: RARβ,γ selectivity"
same,RARα transactivation (RAR-ERcassette) in words,[10],inactive on RARα
same,RAR-ERcassette RARα transactivation (%),[10]; -6 log M (1 μM),12%
same,RAR-ERcassette RARα transactivation (%),[10]; -7 log M,3%
"CC1(C)CCC(C)(C)c2cc(/C=C3/CCc4cc(-c5nnn[nH]5)ccc43)ccc21 [CB94083, (Z) 5-[1-[2-(5,6,7,8-tetrahydro-5,5,8,8-tetramethyl)naphthalenylmethylene]-2,3-dihydro-1H-indenyl]-1H-tetrazole]",RAR-ERcassette RARγ transactivation (%),[5]; -6 log M (1 μM),18%
same,activation at 1 µM,"[6]; Homo sapiens, HeLa",13%
same,RAR-ERcassette RARβ transactivation (%),[8]; -6 log M (1 μM),14%
same,RAR-ERcassette profile in words,[9],weakly active
same,RAR-ERcassette RARα transactivation (%),[10]; -6 log M (1 μM),4%
Cc1cc2c(cc1C(=O)c1ccc(C(=O)O)cc1)C(C)(C)CCC2(C)C [LGD-CB14499],"GAL4-RARβ activity, % of activity measured for 10^-8 M TTNPB",[11]; Concentration -6 (log M),9%
same,"GAL4-RARβ activity, % of activity measured for 10^-8 M TTNPB",[11]; Concentration -7 (log M),1%
same,"GAL4-RARβ activity, % of activity measured for 10^-8 M TTNPB",[11]; Concentration -8 (log M),0%
same,"GAL4-RARγ activity, % of activity measured for 10^-8 M TTNPB",[12]; Concentration -6 (log M),13%
same,"GAL4-RARγ activity, % of activity measured for 10^-8 M TTNPB",[12]; Concentration -7 (log M),0%
same,"GAL4-RARγ activity, % of activity measured for 10^-8 M TTNPB",[12]; Concentration -8 (log M),0%
same,Emax at 1 µM,"[6]; Homo sapiens, HeLa",94%
same,GAL-RAR agonist profile in words,[13],do not allow one to observe a good transactivation mediated by RAR
same,Anti-estrogenic effect (MELN) in words,[1],inactive
same,inhibition at 0.1 µM,[1]; [16],0%
same,inhibition at 1 µM,[1]; [16],0%
same,Emax,"[7]; Homo sapiens, HeLa, read-out: HRLN transactivation E max %",30%
same,Anti-AP-1 effect (MTLN) in words,[3],causes an inhibition of the AP-1 route
same,"Anti-AP-1 effect, Inhibition (%)",[3]; -7 log M,17-30%
same,RARβ transactivation (RAR-ERcassette) in words,[8],transcriptional power appears higher notably through the RARβ-ERcassette
same,"GAL4-RARα activity, % of activity measured for 10^-8 M TTNPB",[14]; Concentration -6 (log M),17%
same,"GAL4-RARα activity, % of activity measured for 10^-8 M TTNPB",[14]; Concentration -7 (log M),4%
same,"GAL4-RARα activity, % of activity measured for 10^-8 M TTNPB",[14]; Concentration -8 (log M),1%
C/C(=C\c1ccc(C(=O)O)cc1)c1ccc2c(c1)C(C)(C)CCC2(C)C [TTNPB],inhibition at 0.01 µM,[1]; [16],30 to 41%
same,Inhibition in MELN,"[1]; RAR selective molecules, 10^-9 M estradiol",~40%
same,EC50,"[7]; Homo sapiens, HeLa, read-out: HRLN transactivation EC50",0.55 ± 0.72 nM
same,IC50,"[2]; Homo sapiens, T47D, 168 h, read-out: T-47D IC50 (growth inhibition by 50%)",3.3 ± 1.1 nM
same,"Anti-AP-1 effect, Inhibition (%)",[3]; -7 log M,29-54%
same,"Anti-AP-1 effect, Inhibition (%)",[3]; -8 log M,26-53%
same,IC50,"[4]; Homo sapiens, MCF7, 168 h, read-out: MCF-7 IC50 (growth inhibition by 50%)",0.35 ± 0.07 nM
